Measured values: patent US5521173A, “Tricyclic benzazepine vasopressin antagonists” (American Home Products Corporation, priority 1995, dated 1996)

Experiments:
[1] = tested on: Vasopressin V2; test: Vasopressin V2 Antagonist Activity in Conscious Hydrated Rats; assay type: in vivo, rat; details: 10 mg/kg orally, AVP 0.4 μg/kg i.p.; for Osmolality: urine
Description: Two to four rats are used for each compound. One hour later, arginine vasopressin (AVP, antidiuretic hormore, ADH) dissolved in peanut oil is administered at 0.4 μg/kg intraperitoneally. Two rats in each test would not receive arginine vasopressin but only the vehicle (peanut oil) to serve as water-loading control. Twenty minutes later each rat is given 30 mL/kg of deionized water orally by gavage and is placed individually in a metabolic cage equipped with a funnel and a graduated glass cylinder to collect urine for four hours. Urine volume is measured and osmolality analyzed by use of a Fiske One-Ten osmometer (Fiske Assoc., Norwood, Mass., USA). Urinary sodium, potassium, and chloride are analyzed by use of ion-specific electrodes in a Beckman E3 (Electrolyte 3) Analyzer. In the following results, […] and decreased osmolality relative to AVP-control indicates activity.

[2] = molecular target: T1, Human V2 Vasopressin Receptor (Homo sapiens, UniProt P30518); test: Binding to Membranes of Mouse Fibroblast Cell Line (LV-2) Transfected with the cDNA Expressing the Human V2 Vasopressin Receptor; details: ** LV-2 cell membranes
T1 construct: expressed in transfected cells; host or cells: mouse fibroblast cell line LV-2
T1 sequence (P30518 whole entry): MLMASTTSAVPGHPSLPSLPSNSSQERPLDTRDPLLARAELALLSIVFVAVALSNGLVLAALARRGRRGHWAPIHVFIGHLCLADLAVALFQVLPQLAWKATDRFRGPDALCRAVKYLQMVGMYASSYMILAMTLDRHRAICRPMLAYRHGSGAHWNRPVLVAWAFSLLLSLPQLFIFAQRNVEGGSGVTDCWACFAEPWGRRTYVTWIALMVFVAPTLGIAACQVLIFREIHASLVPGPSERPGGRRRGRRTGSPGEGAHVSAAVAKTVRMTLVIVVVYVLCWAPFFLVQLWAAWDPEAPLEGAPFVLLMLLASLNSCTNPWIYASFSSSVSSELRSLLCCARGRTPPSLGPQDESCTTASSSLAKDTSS
Description: (a) Membrane Preparation Flasks of 175 ml capacity, containing attached cells grown to confluence, are cleared of culture medium by aspiration. […] The content of all flasks is poured into a centrifuge tube and the cells pelleted at 300× g for 15 min. The Hank's based solution is aspirated off and the cells homogenized with a polytron at setting #6 for 10 sec in 10.0 mM Tris.HCl buffer, pH 7.4 containing 0.25M sucrose and 1.0 mM EDTA. The homogenate is centrifuged at 1500× g for 10 min to remove ghost membranes. The supernatant fluid is centrifuged at 100,000× g for 60 min to pellet the receptor protein. […] (b) Receptor Binding […] Non specific binding is assessed in the presence of 1.0 μM of unlabeled ligand, added in 20 μl volume. […] The radioactivity trapped on the filter disk by the ligand-receptor complex is assessed by liquid scintillation counting in a Packard LS Counter, with an efficiency of 65% for tritium. The data are analyzed for IC50 values by the LUNDON-2 program for competition (LUNDON SOFTWARE, Ohio).

[3] = molecular target: T2, Vasopressin V1 receptor subtype in Human Platelet Membranes (Homo sapiens, UniProt P37288); test: Binding to Vasopressin V1 receptor subtype in Human Platelet Membranes
T2 construct: tissue Hudson Valley Blood Services, Westchester Medical Center, Valhalla, N.Y; host or cells: human platelets (frozen platelet rich plasma)
T2 sequence (P37288 whole entry): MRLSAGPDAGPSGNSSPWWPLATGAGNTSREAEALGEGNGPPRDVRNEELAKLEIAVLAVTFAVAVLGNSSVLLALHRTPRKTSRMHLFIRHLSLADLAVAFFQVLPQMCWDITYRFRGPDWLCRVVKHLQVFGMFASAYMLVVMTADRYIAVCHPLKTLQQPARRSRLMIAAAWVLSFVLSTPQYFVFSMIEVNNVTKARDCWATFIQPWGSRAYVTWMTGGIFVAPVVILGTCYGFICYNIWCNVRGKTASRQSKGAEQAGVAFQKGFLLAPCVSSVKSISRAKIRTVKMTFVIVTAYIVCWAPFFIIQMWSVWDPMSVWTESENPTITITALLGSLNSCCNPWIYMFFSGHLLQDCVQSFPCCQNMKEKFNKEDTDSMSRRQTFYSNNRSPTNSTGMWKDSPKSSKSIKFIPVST
Description: Radioligand Binding Experiments with Human Platelet Membranes
(a) Platelet Membrane Preparation
Frozen platelet rich plasma (PRP), (Platelet Source: Hudson Valley Blood Services, Westchester Medical Center, Valhalla, N.Y.) are thawed to room temperature. The tubes containing the PRP are centrifuged at 16,000×g for 10 min. at 4° C. and the supernatant fluid discarded. The platelets resuspended in an equal volume of 50.0 mM Tris.HCl, pH 7.5 containing 120 mM NaCl and 20.0 mM EDTA. The suspension is recentrifuged at 16,000× g for 10 min. This washing step is repeated one more time. The wash discarded and the lysed pellets homogenized in low ionic strength buffer of Tris.HCl, 5.0 mM, pH 7.5 containing 5.0 mM EDTA. The homogenate is centrifuged at 39,000× g for 10 min. The resulting pellet is resuspended in Tris.HCl buffer, 70.0 mM, pH 7.5 and recentrifuged at 39,000× g for 10 min. The final pellet is resuspended in 50.0 mM Tris.HCl buffer pH 7.4 containing 120 mM NaCl and 5.0 mM KCl to give 1.0-2.0 mg protein per ml of suspension.
(b) Binding to Vasopressin V1 receptor subtype in Human Platelet Membranes
In wells of a 96 well format microtiter plate, add 100 μl of 50.0 mM Tris.HCl buffer containing 0.2% BSA and a mixture of protease inhibitors (aprotinin, leupeptin etc.). Then add 20 μl of [^3 H]Ligand (Manning or Arg^8 Vasopressin), to give final concentrations ranging from 0.01 to 10.0 nM. Initiate the binding by adding 80.0 μl of platelet suspension (approx. 100 μg protein). Mix all reagents by pipetting the mixture up and down a few times. Non specific binding is measured in the presence of 1.0 µM of unlabeled ligand (Manning or Arg^8 Vasopressin). Let the mixture stand undisturbed at room temperature for ninety (90) min. Upon this time, rapidly filter off the incubate under vacuum suction over GF/B filters, using a Brandel Harvester. Determine the radioactivity caught on the filter disks by the addition of liquid scintillant and counting in a liquid scintillator.

[4] = molecular target: T3, oxytocin receptors (Rattus norvegicus, UniProt P70536); test: Oxytocin Receptor Binding; set-up: species or system rat (female Sprague-Dawley); details: for IC50: 1.0 nM [3H]OT
T3 construct: The uteri are dissected out, cleaned of fat and connective tissues; from tissue; host or cells: uteri of DES-treated female Sprague-Dawley rats
T3 sequence (P70536 1-388): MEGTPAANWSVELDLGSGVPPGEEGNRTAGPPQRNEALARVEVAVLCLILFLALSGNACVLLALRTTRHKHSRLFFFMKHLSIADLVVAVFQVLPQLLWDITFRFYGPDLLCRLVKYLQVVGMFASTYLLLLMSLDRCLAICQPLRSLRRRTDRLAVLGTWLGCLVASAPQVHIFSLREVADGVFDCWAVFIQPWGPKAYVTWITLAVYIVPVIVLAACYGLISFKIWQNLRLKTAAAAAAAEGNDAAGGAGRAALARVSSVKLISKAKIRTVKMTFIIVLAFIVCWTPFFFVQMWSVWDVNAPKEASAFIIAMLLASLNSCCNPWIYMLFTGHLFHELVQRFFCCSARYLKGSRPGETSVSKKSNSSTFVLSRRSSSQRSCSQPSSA
Description: Oxytocin Receptor Binding
Female Sprague-Dawley rats weighing approximately 200-250 g are injected intramuscularly (i.m.) with 0.3 mg/kg of body weight of diethylstilbestrol (DES). The rats are sacrificed 18 hours later under pentobarbital anesthesia. The uteri are dissected out, cleaned of fat and connective tissues and rinsed in 50 ml of normal saline. The tissue pooled from six rats is homogenized in 50 ml of […] Tris.HCl, containing 0.5 mM dithiothreitol and 1.0 mM EDTA, adjusted to pH 7.4, using a polytron at setting 6 with three passes of 10 sec each. The homogenate is passed through two (2) layers of cheesecloth and the filtrate centrifuged at 1000× g for 10 min. The clear supernatant is removed and recentrifuged at 165,000× g for 30 min. The resulting pellet containing the oxytocin receptors is resuspended in 50.0 mM Tris.HCl containing 5.0 mM MgCl2 at pH 7.4, to give a protein concentration of 2.5 mg/ml of tissue suspension. This preparation is used in subsequent binding assays with [^3 H]Oxytocin.
Binding of 3,5-[^3 H]Oxytocin ([^3 H]OT) to its receptors is done in microtiter plates using [^3 H]OT, at various concentrations, in an assay buffer of 50.0 mM Tris.HCl, pH 7.4 and containing 5.0 mM MgCl2, and a mixture of protease inhibitors: BSA, 0.1 mg; aprotinin, 1.0 mg; 1,10-phenanthroline, 2.0 mg; […], 10.0 mg; and PMSF, 0.3 mg per 100 ml of buffer solution. Non-specific binding is determined in the presence of 1.0 uM unlabeled OT. The binding reaction is terminated after 60 min., at 22° C., by rapid filtration through glass fiber filters using a Brandel, cell harvester (Biomedical Research and Development Laboratories,Inc., Gaithersburg, Md.). Competition experiments are conducted at equilibrium using 1.0 nM [^3 H]OT and varying the concentration of the displacing agents. The concentrations of agent displacing 50% of [^3 H]OT at its sites (IC50) are calculated by a computer assisted LUNDON-2 program (LUNDON SOFTWARE INC., Ohio, USA).

Compound | Urine Volume [1] [ml/4 hrs] | Osmolality [1] [mOsm/kg] | IC50 [2] [nM] | IC50 [3] [nM] | inhibition at 10 µM [4] [%] | IC50 [4] [nM]
Cc1ccccc1-c1ccc(C(=O)N2Cc3cccn3Cc3ccccc32)cc1 [Example 5, 10,11-Dihydro-10-[4-(2-methylphenyl)benzoyl]-5H-pyrrolo[2,1-c][1,4]benzodiazepine] | 7.8 | 992 | 2000 | 88 | – | –
CCCc1ccc(-c2ccc(C(=O)N3Cc4cccn4Cc4ccccc43)cc2)cc1 [Example 21, 10,11-Dihydro-10-[(4'-propyl[1,1'-biphenyl]-4-yl)carbonyl]-5H-pyrrolo[2,1-c][1,4]benzodiazepine] | 4.5 | 1347 | 58 | 12 | 68 | –
O=C(c1ccc(-c2ccccc2[N+](=O)[O-])cc1)N1Cc2cccn2Cc2ccccc21 [Example 2, 10,11-Dihydro-10-[4-(2-nitrophenyl)benzoyl]-5H-pyrrolo[2,1-c][1,4]benzodiazepine] | 5.5 | 1257 | 96 | 64 | 100 | 49 ± 3
O=C(c1ccc(-c2cccs2)cc1)N1Cc2cccn2Cc2ccccc21 [drawing 73] | – | – | 510 | 13 | – | –
O=C(c1ccc(-c2cccs2)nc1)N1Cc2cccn2Cc2ccccc21 [Example 22] | – | – | 3600 | 960 | 98 | 480
CN(C)Cc1ccc2n1Cc1ccccc1N(C(=O)c1ccc(-c3cccs3)cc1)C2 [Example 6, 10,11-Dihydro-3-[(dimethylamino)methyl]-10-[4-(2-thienyl)benzoyl]-5H-pyrrolo[2,1-c][1,4]benzodiazepine] | – | – | 15000 | 63 | 100 | 330
